Laboratory results reported in US9150982B2, “Crystal form of (6S)-5-methyltetrahydrofolate salt and method for preparing same” (LIANYUNGANG JINKANG HEXIN PHARMACEUTICAL CO. LTD., priority 2012, dated 2015).
Like-named read-outs stand apart in the source and are kept apart here.

Settings: in the air, 40° C., relative humidity 60%
Procedure: In order to determine the stability of the novel crystal form of the Form C of (6S)-5-MTHF calcium salt, the crystal form was placed in the air at a temperature of 40° C. and a relative humidity of 60%, and the content of remained (6S)-5-MTHF calcium salt was periodically measured.

(6S)-5-methyltetrahydrofolate calcium salt [Form C]
Stability (overall result in words) (up to 9 days): good stability
Appearance (storage 0 days): White crystal
Content of remained (6S)-5-MTHF calcium salt (storage 0 days): 99.5%
Appearance (storage 3 days): White crystal
Content of remained (6S)-5-MTHF calcium salt (storage 3 days): 99.1%
Appearance (storage 6 days): White crystal
Content of remained (6S)-5-MTHF calcium salt (storage 6 days): 99.1%
Appearance (storage 9 days): White crystal
Content of remained (6S)-5-MTHF calcium salt (storage 9 days): 98.4%
